Measurements taken from article PMC11892739, “Site-specific molecular glues for the 14-3-3/Tau pS214 protein–protein interaction via reversible covalent imine tethering” (RSC Medicinal Chemistry, 2025).

Target: T1, 14-3-3ζ/RND3 peptide (Homo sapiens, UniProt P63104)
T1 construct: made in house; host or cells: NiCo21 (DE3) E. coli
Test: FA peptide screen, 14-3-3ζ titration to client peptide and compound: RND3
Type: binding
Conditions: 250 μM compound, 100 nM peptide; +1 Cys
Experimental: Since the hub protein 14-3-3 binds to hundreds of phosphoprotein partners, selectivity of PPI stabilization is a major challenge. The interplay of chemical reactivity, and the topology and functionality of the composite binding pocket shaped by 14-3-3 and Tau potentially provide entries towards selective stabilization. […] Here, 14-3-3ζ was titrated to a constant concentration of client peptide (100 nM) and compound (250 μM) to determine the SF250μM values for the particular 14-3-3 PPI. A variety of 14-3-3 binding proteins was represented in this client panel whereby the size and hydrophobicity of the +1 amino acid were varied. […]
chromatography (HisTrap high performance cartridges, Cytiva). Typically two 5 mL columns were used for a 2 L culture in which the lysate was loaded on the column, washed with 10 CV wash buffer (50 mM Hepes, pH 8.0, 300 mM NaCl, 25 mM imidazole, 2 mM βME), and eluted with several fractions (2-4 CV) of elution buffer (50 mM Hepes, pH 8.0, 300 mM NaCl, 250 mM imidazole, 2 mM βME). […] Dialyzed protein was concentrated to ∼40 mg/mL, analyzed by Q -Tof LC/MS, and aliquots were flash -frozen for storage at −80 °C. […] Fractions containing the 14 -3-3 protein were pooled and concentrated to ∼60 mg/mL, analyzed Q -Tof LC/MS, and aliquots were flash -frozen for storage at −80°C.
Fluorescence Anisotropy – compound titration […]

T1 sequence (P63104 whole entry, other chains not shown): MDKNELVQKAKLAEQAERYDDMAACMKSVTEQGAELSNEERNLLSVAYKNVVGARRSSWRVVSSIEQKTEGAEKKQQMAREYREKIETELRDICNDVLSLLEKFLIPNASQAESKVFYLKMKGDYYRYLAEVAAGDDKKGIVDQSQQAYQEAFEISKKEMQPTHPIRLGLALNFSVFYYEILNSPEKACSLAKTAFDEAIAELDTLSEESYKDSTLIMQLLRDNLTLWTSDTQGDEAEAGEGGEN

CCc1ccc(-c2nccn2-c2ccc(C=O)c(Br)c2)cc1 [Compound 18]
stabilization of 14-3-3/RND3 peptide (in words): did not show significant stabilizing activity
